Results as given in US20090264342A1, “COMPOSITIONS AND METHODS FOR ANTIBIOTIC POTENTIATION AND DRUG DISCOVERY” (priority 2006, published 2009).

How the values were obtained:
E. Coli RecA protein = target: T1, E. Coli RecA protein (Escherichia coli, UniProt P0A7G6); assay: RecA ATPase activity, in vitro luciferase assay; format: biochemical; settings: luciferase assay screen, FIG. 14
T1 construct: purchased New England Biolabs
Method: The assay measures the amount of ATPase (adenosine triphosphate (ATP)-adenosine diphosphate (ADP)) activity catalyzed by E. Coli RecA protein. In the assay, recA is incubated in reaction buffer with DNA, ATP and compounds of interest for a measured amount of time. The quantity of ATP remaining after the RecA reaction is quantitated using a subsequent luciferase assay. […] Details of the assay are provided below.
Materials. Kingase glo plus, adenosine triphosphate (ATP), Adenosine 5′-O-(3-thiotriphosphate), and 384 well plates, white were obtained from Fisher; and M13 mp18 Single-stranded DNA, RecA Protein and T4 Polynucleotide Kinase Reaction Buffer=PNK were obtained from New England Biolabs. PNK contained 70 mM Tris-CL pH 7.5, 10 mM MgCl2 and 5 mM DTT.
Assay Procedure. Final reaction mixture contains: 0.5 μL of M13 single stranded DNA (250 μg/mL); 1.0 μL of 10×PHK buffer; 0.25 μL of RecA (2 mg/mL); 0.25 μL of 1 mM ATP; 0.25 μL of test compound in DMSO; and […] of H2O.
Test compounds are incubated at room temperature in the presence of RecA protein and DNA prior to addition of ATP. This can be achieved by the preparation of two mixes, as indicated below. Desirably, both a no-DNA and a DNA/DMSO-only (i.e., no test compound) control were included.
The following steps are then performed: (1) Add 7.75 μL of mix 1 to the well of a 384 well plate; (2) Add 0.5 μL of the compound of interest; (3) Incubate at room temperature for 5 minutes; (4) Add 2.5 μL of the ATP mix. Incubate at room temperature for 30 minutes; (5) Add 12.5 μL of Promega Kinase glo plus; (6) Incubate at room temperature for 10 minutes or more; and (7) Measure luminescence of the reaction.
Tested compounds were obtained from Boston University (1205 compounds from CMLD diversity library, available from Dr. Scott Schauss), IndoFine (66 compounds based on flavone structure), ChemdiV (48 compounds known to be ATPase inhibitors and 720 compounds structurally related to CB101 (described, for example, in U.S. Ser. No. 60/662,038), and Asinex. Five (5) tested compounds were bisfiavones and 28 were predicted, based on structural modeling (see, for example, Example 31) to dock with Rec A. Many of the compounds are lipophilic, natural-product-like compounds. Others are flavones, bisflavones, flavonoids, coumarins, and/or heterocyclic compounds.
Percent inhibition is calculated according to the following equation: […]

wild type E. coli = assay: Growth of wild type E. coli in the presence of quinolone (OD600); format: cell-based; settings: 0.1 μg/mL of Cipro (sublethal concentration)
Text: Each deletion strain was constructed by replacing the chromosomal copy of the relevant gene in a wild type E. coli strain (K-12) with a selectable antibiotic resistance gene, essentially as described, to create a precise gene deletion (Datsenko, K. A. and Wanner, B. L., “One-step inactivation of chromosomal genes in Escherichia coli K-12 using PCR products”, Proc Natl Acad Sci USA, 97, 6640-6645, […]); Baba, T., Ara, T., Okumura, Y., iki Hasegawa, M., Takai, Y., Baba, M., Oshima, T., Tomita, M., Wanner, B. and Mori, H. (2003) Systematic construction of single gene deletion mutants in Escherichia coli K-12 (in preparation) and see also the web site at ecoli.aist-nara.ac.jp/gb5/Resources/deletion/deletion.html).
For each mutant, the ratio of growth of the mutant in the presence of a sublethal concentration of quinolone to growth of the mutant in the absence of quinolone was calculated after 12 hours of growth at 37° C., based on OD600 measurements. […]

S. aureus cells = assay: Mutation/resistance assay, resistance to ciprofloxacin; format: cell-based; settings: 4×MIC ciprofloxacin with (+) or without (−) 25 μg/mL hinokiflavone
Method: This assay measures the rate at which mutant cells arise in the presence of an antibiotic agent. Cells are grown in the presence of antibiotic agent at a concentration above (generally well above, e.g., 4× or 8×) its MIC, and further in the presence or absence of a test agent (that may inhibit or enhance mutation).
Every 24 hours, an aliquot is removed from the culture and is diluted so that the antibiotic agent is no longer present at a concentration above its MIC (e.g., so that the antibiotic agent is present at 0.5×MIC or less). These aliquoted samples are then assayed to determine whether they can grow in the presence of the antibiotic agent. Specifically, when growth is observed in the presence of antibiotic agent at a concentration that is 4×MIC, then resistance is said to have developed. Test compounds can therefore be assayed to assess whether or not they can reduce the incidence of resistance (e.g., by inhibiting mutation).
These aliquoted samples were then assayed to determine whether they can grow in the presence of ciprofloxacin. […]

strain E1 = assay: Potentiation of gentamicin by mefloquine (MBC, MIC); format: cell-based
Text: Several aminoglycoside (gentamicin) potentiator target genes identified in Example 34 are ATP synthases.

[1] = tested on: wild-type strain of S. aureus; assay: Hydroxyl radical formation (HPF dye, flow cytometry) in S. aureus; format: cell-based
Method: For work with S. aureus, a Staphylococcus aureus subspecies aureus Rosenback strain was used that was obtained from ATCC (29740).
(§1) Growth Conditions. In the experiments, the growth and survival of untreated exponential phase E. coli, or S. aureus, were compared to cultured treated with antibiotics at the above concentrations. E. coli cultures were treated with norfloxacin, kanamycin, ampicillin, rifamycin SV, chloramphenical, tetracycline, erythromycin, or spectinomycin, where appropriate, S. aureus cultures were treated with norfloxacin, vancomycin or chloramphenical, where appropriate.
(§2) Hydroxyl radical and DNA damage sensor experiments using the flow cytometer. To monitor the occurrence of DNA damage, the engineered DNA damage sensor was used, which responds to auto-cleavage of LexA by activating expression of gfpmut3b. All the drug treatments and the no-drug controls were collected with both the kanamycin- and ampicillin-resistant version of the plasmid, with the exception of the ampicillin treatment (kanamycin plasmid only) and the kanamycin treatment (ampicillin plasmid only). All data were collected using a Becton Dickinson FACSCalibur flow cytometer (Becton Dickinson, San Jose, Calif.) with a 488-nm argon laser and a 515- to 545-nm emission filter (FL1) at low flow rate. The following PMT voltage settings were used: E00 (FSC), 360 (SSC) and 700 (FL1). To detect hydroxyl radical formation, the fluorescent reporter dye, 3′-(p-hydroxyphenyl) fluorescein (HPF, Invitrogen, Carlsbad, Calif.) was used at a concentration of 5 μM (1:1000) dilution), which is oxidized by hydroxyl radicals with high specificity. The following PMT voltage settings were used: E00 (FSC), 360 (SSC) and 825 (FL 1). Calibrite beads (Becton Dickinson) were used for instrument calibration.

E. coli MG1655 = assay: Hydroxyl radical formation (HPF dye, flow cytometry) in E. coli; format: cell-based; settings: E. coli; 250 ng/mL norfloxacin, 5 μg/mL ampicillin, 5 μg/mL kanamycin; bacteriostatic drugs; 3 hours after addition
Method: as §1, §2
Flow data were processed and analyzed with MATLAB (MathWorks, Natick, Mass.) to construct figures. At least 50,000 cells were collected for each sample. In all experiments, cells were grown as described above. Samples were taken immediately before addition of drug (time zero), then every hour for 3 hours. At each timepoint, approximately […] were collected, washed once and resuspended in filtered 1×PBS, pH 7.2 (Fisher Scientific), and fluorescence was measured on the flow cytometer.
In the present study, the Applicants chose to investigate whether hydroxyl radical formation also contributes to antibiotic-induced cell death in bacteria. Using the dye hydroxyphenyl fluorescein, HPF, which is oxidized by hydroxyl radicals with high specificity, hydroxyl radical formation was first observed over a range of hydrogen peroxide concentrations known to induce hydroxyl radicals through the reduction of hydrogen peroxide by ferrous iron. In this manner, it was possible to establish the scale of hydroxyl radical formation detectable using this dye via flow cytometry.

E. coli H+ATPase = E. coli H+ATPase (Escherichia coli, UniProt P0AB98+P68699); settings: cited from earlier work

T1 sequence (P0A7G6 2-353): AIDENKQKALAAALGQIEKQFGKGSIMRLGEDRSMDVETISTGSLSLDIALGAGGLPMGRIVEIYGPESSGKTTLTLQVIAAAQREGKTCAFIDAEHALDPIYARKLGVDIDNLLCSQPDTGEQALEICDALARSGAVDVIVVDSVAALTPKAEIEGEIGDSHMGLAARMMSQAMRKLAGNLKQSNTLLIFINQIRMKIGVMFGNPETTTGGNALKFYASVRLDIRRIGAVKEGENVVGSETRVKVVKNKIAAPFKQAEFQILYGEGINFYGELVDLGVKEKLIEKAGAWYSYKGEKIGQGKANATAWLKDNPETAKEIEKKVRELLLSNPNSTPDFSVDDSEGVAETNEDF

O=c1c(O)c(-c2ccc(O)cc2)oc2cc(O)ccc12 [3,7,4′-trihydroxyflavone]
activity as inhibitor of RecA ATPase (in words) (E. Coli RecA protein): particularly active

O=c1cc(-c2ccc(O)cc2)oc2cc(O)c(O)c(O)c12 [6-hydroxy-apigenin]
activity as inhibitor of RecA ATPase (in words) (E. Coli RecA protein): particularly active

O=C(O)c1cn(C2CC2)c2cc(N3CCNCC3)c(F)cc2c1=O [Cipro, ciprofloxacin]
growth of wild type E. coli in the presence of Cipro (wild type E. coli): able to grow
Number of Wells in which Growth Observed in Presence of Ciprofloxacin at 4x MIC (S. aureus cells; culture grown 0 days): 0
Number of Wells in which Growth Observed in Presence of Ciprofloxacin at 4x MIC (S. aureus cells; culture grown 1 day): 1
Number of Wells in which Growth Observed in Presence of Ciprofloxacin at 4x MIC (S. aureus cells; culture grown 5 days): 2
Number of Wells in which Growth Observed in Presence of Ciprofloxacin at 4x MIC (S. aureus cells; culture grown 6 days): 2
Number of Wells in which Growth Observed in Presence of Ciprofloxacin at 4x MIC (S. aureus cells; culture grown 7 days): 3
Number of Wells in which Growth Observed in Presence of Ciprofloxacin at 4x MIC (S. aureus cells; culture grown 10 days): 11

OC(c1cc(C(F)(F)F)nc2c(C(F)(F)F)cccc12)C1CCCCN1 (centres unmarked) [Mefloquine]
reduction of the MBC of gentamicin (strain E1; strain E1, Mefloquine 100 μg/mL): 6 fold
reduction of the MIC of gentamicin (strain E1; strain E1, Mefloquine 500 μg/mL): 2 fold

O=c1cc(-c2ccc(O)cc2)oc2cc(O[C@@H]3O[C@H](CO)[C@@H](O)[C@H](O)[C@H]3O)cc(O)c12 [apigenin-7-O-glucoside]
activity as inhibitor of RecA ATPase (in words) (E. Coli RecA protein): particularly active

O=c1cc(-c2ccc(O)cc2)oc2cc(O)cc(O)c12 [apigenin]
activity as inhibitor of RecA ATPase (in words) (E. Coli RecA protein): particularly active

O=C(N[C@H](CO)[C@H](O)c1ccc([N+](=O)[O-])cc1)C(Cl)Cl [chloramphenicol]
hydroxyl radical formation ([1]; norfloxacin, chloramphenical): hydroxyl formation was not observed
hydroxyl radical formation (E. coli MG1655): did not stimulate hydroxyl radical production

CC[C@H]1OC(=O)[C@H](C)[C@@H](O[C@H]2C[C@@](C)(OC)[C@@H](O)[C@H](C)O2)[C@H](C)[C@@H](O[C@@H]2O[C@H](C)C[C@H](N(C)C)[C@H]2O)[C@](C)(O)C[C@@H](C)C(=O)[C@H](C)[C@@H](O)[C@]1(C)O [erythromycin]
hydroxyl radical formation (E. coli MG1655): did not stimulate hydroxyl radical production

O=c1c(O)c(-c2ccc(O)c(O)c2)oc2cc(O)ccc12 [fisetin]
activity as inhibitor of RecA ATPase (in words) (E. Coli RecA protein): particularly active

COc1cc(-c2oc3cc(O)cc(O)c3c(=O)c2O)ccc1O [isorhamnetin]
activity as inhibitor of RecA ATPase (in words) (E. Coli RecA protein): particularly active

O=c1c(O)c(-c2ccc(O)cc2)oc2cc(O)cc(O)c12 [kaempferol]
activity as inhibitor of RecA ATPase (in words) (E. Coli RecA protein): particularly active

O=C(c1ccc(O)c(O)c1)c1c(O)cc(O)cc1O [maclurin]
activity as inhibitor of RecA ATPase (in words) (E. Coli RecA protein): particularly active

O=c1c(O)c(-c2ccc(O)cc2O)oc2cc(O)cc(O)c12 [morin]
activity as inhibitor of RecA ATPase (in words) (E. Coli RecA protein): particularly active

CC[C@H]1/C=C/C=C/C[C@@H](C)[C@H](O)[C@@](C)(O)C(=O)[C@@H](C)[C@H](O)[C@@H](C)C(=O)[C@@H](C)[C@H](O)[C@@H](C)/C=C/C(=O)O[C@@H]2[C@H](C)[C@H](CC1)O[C@]1(CC[C@H](C)[C@H](C[C@@H](C)O)O1)[C@H]2C [oligomycin]
inhibition of ATP-driven proton transport and ATP hydrolysis (E. coli H+ATPase): weakly inhibited

O=c1c(O)c(-c2ccc(O)c(O)c2)oc2cc(O)c(O)c(O)c12 [quercetagetin]
activity as inhibitor of RecA ATPase (in words) (E. Coli RecA protein): particularly active

O.O.O=c1c(O)c(-c2ccc(O)c(O)c2)oc2cc(O)cc(O)c12 [quercetin dihydrate]
activity as inhibitor of RecA ATPase (in words) (E. Coli RecA protein): particularly active

CO[C@H]1/C=C/O[C@@]2(C)Oc3c(C)c([O-])c4c(O)c(cc(O)c4c3C2=O)NC(=O)/C(C)=C\C=C\[C@H](C)[C@H](O)[C@@H](C)[C@@H](O)[C@@H](C)[C@H](OC(C)=O)[C@@H]1C.[Na+] [rifamycin SV]
hydroxyl radical formation (E. coli MG1655): did not stimulate hydroxyl radical production

O=c1c(O)cc([C@H]2Oc3cc(O)cc(O)c3C[C@H]2O)cc2c([C@H]3Oc4cc(O)cc(O)c4C[C@H]3O)cc(O)c(O)c12 [theaflavin]
activity as inhibitor of RecA ATPase (in words) (E. Coli RecA protein): particularly active

CN[C@H](CC(C)C)C(=O)N[C@H]1C(=O)N[C@@H](CC(N)=O)C(=O)N[C@H]2C(=O)N[C@H]3C(=O)N[C@H](C(=O)N[C@H](C(=O)O)c4cc(O)cc(O)c4-c4cc3ccc4O)[C@H](O)c3ccc(c(Cl)c3)Oc3cc2cc(c3O[C@@H]2O[C@H](CO)[C@@H](O)[C@H](O)[C@H]2O[C@H]2C[C@](C)(N)[C@H](O)[C@H](C)O2)Oc2ccc(cc2Cl)[C@H]1O [vancomycin]
hydroxyl radical formation ([1]; lethal concentration (5 μg/mL)): increase in hydroxyl radical production
hydroxyl radical formation ([1]; sub-lethal concentration (1 μg/mL)): hydroxyl formation was not observed

venturicidin
inhibition of ATP-driven proton transport and ATP hydrolysis (E. coli H+ATPase): strongly inhibited
